Like-named read-outs stand apart in the source and are kept apart here. Marks after values point to notes of the source that are not given here.
Key:
[1] = system: HeLa cells; experiment: Neutral comet assay, DNA double-strand breaks (DSBs); type: cell-based, human; conditions: 50 µM
Method: The ability of tested compounds (at concentration of 50 µM) to induce DNA double-strand breaks (DSBs) in model HeLa cells was evaluated by the neutral comet assay according to Błasiak et al. (2012). In this version of the comet assay electrophoresis ran in a buffer consisting of 100 mM Tris and 300 mM sodium acetate at pH 9.0 (with glacial acetic acid). Electrophoresis was conducted for 60 min, after a 20 min equilibrium period, at an electric field strength of 0.41 V/cm (50 mA) at 4 °C. The slides were then proceeded as described in the “Single-cell gel electrophoresis assay” section.

[2] = system: HeLa cells; experiment: Comet assay with endonuclease III, oxidative DNA damage; type: cell-based, human; conditions: 50 µM, net damage recognised by Endo III (oxidative DNA damage)
Method: Oxidative DNA damage was evaluated with the DNA repair enzyme–endonuclease III (Endo III, New England Biolabs Inc., Germany) in model HeLa cells. The procedure was performed according to [67]. To estimate the ability of the enzyme to recognize oxidized DNA bases, the cells were incubated either with tested compounds (at concentration of 50 µM), or hydrogen peroxide (50 µM), lysed and post-treated with Endo III. After lysis slides were washed three times in an enzyme buffer (composed of 40 mM HEPES-KOH, 0.1 KCl, 0.5 mM EDTA, 0.2 mg/mL bovine serum albumin, pH 8.0) and drained, and the agarose was covered with 25 µL of either enzyme buffer or enzyme at 1 µg/mL in buffer, sealed with a cover glass and incubated for 30 min at 37°C. Further steps were described above. To determine the net value of DNA damage recognized by the enzyme, the DNA damage observed in the absence of the enzyme was subtracted from that measured in the presence of it.

[3] = system: LLC-PK1 cells; experiment: Alkaline comet assay, basal endogenous DNA damage; conditions: LLC-PK1, 50 µM, 1 h, mean ± S.E.M.
[4] = system: Caco-2 cells; conditions: human, 1 h, 50 µM
[5] = system: Caco-2 cells; experiment: Alkaline comet assay, basal endogenous DNA damage; conditions: Caco-2, 50 µM, 1 h, mean ± S.E.M.
[6] = system: HeLa cells; experiment: Alkaline comet assay, basal endogenous DNA damage; conditions: 1 h, mean ± S.E.M.

| SMILES | Mean DNA (%) in Comet Tail (±S.E.M.) of HeLa Cells, DSBs [1] | Mean DNA (%) in Comet Tail (±S.E.M.) of HeLa Cells, Endo III [2] | DNA damage, percentage of DNA in the comet tail [3] | DNA damage, percentage of DNA in the comet tail [4] | DNA damage, percentage of DNA in the comet tail [5] | DNA damage, percentage of DNA in the comet tail ([6]; 1 µM) | DNA damage, percentage of DNA in the comet tail ([6]; 50 µM) |
| --- | --- | --- | --- | --- | --- | --- | --- |
| COc1ccc(C2C/C(=N\NC(=O)c3ccccc3)c3c([O][Cu][O]C(C)=O)cc(O)cc3O2)cc1O (stereo not drawn) [CuHHSB, (E)-acetoxy((4-(2-benzoylhydrazono)-7-hydroxy-2-(3-hydroxy-4-methoxyphenyl)chroman-5-yl)oxy)copper] | 14.4 ± 0.7 ^a,b % | 8.3 ± 2.7 ^a % |  |  |  |  |  |
| N.N.[Cl][Pt][Cl] [cisplatin, reference compound] | 30.2 ± 3.4% | 26.5 ± 3.9% | 73.1% ± 3.3% |  |  |  |  |
| COc1ccc(C2CC(=NNC(N)=S)c3c(O)cc(O)cc3O2)cc1O (stereo not drawn) [HTSC, N-[2,3-dihydro-5,7-dihydroxy-2-(3-hydroxy-4-methoxyphenyl)chromen-4-ylidene]thiosemicarbazide] | 13.5 ± 0.7 ^a,c % | 10.2 ± 2.0 ^a % |  | 32.8% ± 4.4% |  |  |  |
| COc1ccc(C2CC(=NNC(=O)c3ccncc3)c3c(O)cc(O)cc3O2)cc1O (stereo not drawn) [HIN, N-[2,3-dihydro-5,7-dihydroxy-2-(3-hydroxy-4-methoxyphenyl)chromen-4-ylidene]isonicotinohydrazide] | 19.5 ± 0.7 ^a % | 5.3 ± 3.5 ^a % |  |  | 23.1% ± 3.4% | 28.9% ± 3.5% |  |
| COc1ccc(C2CC(=NNC(=O)c3ccccc3)c3c(O)cc(O)cc3O2)cc1O (stereo not drawn) [HHSB, N-[2,3-dihydro-5,7-dihydroxy-2-(3-hydroxy-4-methoxyphenyl)chromen-4-ylidene]benzhydrazide] |  | 7.5 ± 3.9 ^a % | 26.3% ± 4.8% |  | 34.0% ± 4.6% | 28.8% ± 4.1% |  |
| COc1ccc(C2C/C(=N\NC(N)=S)c3c([O][Cu][O]C(C)=O)cc(O)cc3O2)cc1O (stereo not drawn) [CuHTSC, (E)-acetoxy((4-(2-carbamothioylhydrazono)-7-hydroxy-2-(3-hydroxy-4-methoxyphenyl)chroman-5-yl)oxy)copper] | 6.4 ± 2.3 ^a,c % | 11.6 ± 1.9 ^a % |  |  |  |  |  |
| COc1ccc(C2C/C(=N\NC(=O)c3ccncc3)c3c([O][Cu][O]C(C)=O)cc(O)cc3O2)cc1O (stereo not drawn) [CuHIN, (E)-acetoxy((7-hydroxy-2-(3-hydroxy-4-methoxyphenyl)-4-(2-isonicotinoylhydrazono)chroman-5-yl)oxy)copper] | 7.7 ± 3.6 ^a % | 12.2 ± 4.2 ^a % |  |  |  |  |  |
| OO [hydrogen peroxide, reference compound] |  | 26.2% ± 4.6% | 54.1% ± 0.2% |  | 42.0% ± 3.6% |  | 50.3% ± 0.6% |

— paper PMC9821237, “Spectroscopic Characterization and Biological Activity of Hesperetin Schiff Bases and Their Cu(II) Complexes” (International Journal of Molecular Sciences, 2023)
